Measured values as given in patent publication US9416353B2, “Covalent tethering of functional groups to proteins and substrates therefor” (Promega Corporation, priority 2004, dated 2016).

Key:
DhaA.H272F = DhaA.H272F (Rhodococcus rhodochrous, UniProt P0A3G2, H272F); type: binding; conditions: dose dependent, HRP conjugated streptavidin
CHO-K1 cells [1] = experiment: Toxicity of Cl-alkanes, CellTiter-Glo Luminescence Cell Viability Assay; type: cell-based
Experimental: To study the toxicity of Cl-alkanes, CHO-K1 cells were plated in 96 well plates to a density of 5,000 cells per well. […] Viability of the cells was measured with CellTiter-Glo™ Luminescence Cell Viability Assay (Promega) according to the manufacturer's protocol. Generally, 100 μl of CellTiter-Glo™ reagent was added directly to the cells and the luminescence was recorded at 10 minutes using a DYNEX MLX microtiter plate luminometer.

CHO-K1 cells [2] = experiment: Permeability of cell membrane to substrates (uptake and wash-out, fluorescence); type: cell-based; conditions: 100 μM, 60 minutes
Experimental: CHO-K1 Cells (ATCC-CCL61) were cultured in a 1:1 mixture of Ham's F12 nutrients and Dulbecco's modified minimal essential medium supplemented with 10% fetal bovine serum (FBS), 100 U/ml penicillin, and […] streptomycin, in an atmosphere of 95% air and 5% CO2 at 37° C.

O=C(CCCC[C@@H]1SC[C@@H]2NC(=O)N[C@@H]21)NCCOCCOCCCCCCCl [biotin-C10H21NO2—Cl, N-{2-[2-(6-Chlorohexyloxy)-ethoxy]ethyl}-biotin-amide]
concentration at which binding could be detected (DhaA.H272F): 0.2 µM
toxicity on CHO-K1 cells (CHO-K1 cells [1]; 24 hours of treatment at 100 μM): No toxicity

O=C(NCCOCCOCCCCCCCl)c1ccc(-c2c3ccc(=O)cc-3oc3cc(O)ccc23)c(C(=O)O)c1 [N-{2-[2-(6-Chlorohexyloxy)-ethoxy]-ethyl}-fluorescein-5-amide]
crossing of the plasma membrane of CHO-K1 cells (CHO-K1 cells [2]): did not cross the plasma membrane

N-{2-[2-(6-Chlorohexyloxy)-ethoxy]-ethyl}-tetramethylrhodamine-5-(and -6)-amide
toxicity on CHO-K1 cells (CHO-K1 cells [1]; 4 hour treatment at 100 μM (highest concentration tested)): no toxicity
